26 compounds from patent publication US20240025880A1 (CHIESI FARMACEUTICI S.P.A., priority 2020, published 2024) can be followed below.

The assay addresses T1, h P2X3 (Homo sapiens, UniProt P56373).
T1 sequence (P56373 1-397): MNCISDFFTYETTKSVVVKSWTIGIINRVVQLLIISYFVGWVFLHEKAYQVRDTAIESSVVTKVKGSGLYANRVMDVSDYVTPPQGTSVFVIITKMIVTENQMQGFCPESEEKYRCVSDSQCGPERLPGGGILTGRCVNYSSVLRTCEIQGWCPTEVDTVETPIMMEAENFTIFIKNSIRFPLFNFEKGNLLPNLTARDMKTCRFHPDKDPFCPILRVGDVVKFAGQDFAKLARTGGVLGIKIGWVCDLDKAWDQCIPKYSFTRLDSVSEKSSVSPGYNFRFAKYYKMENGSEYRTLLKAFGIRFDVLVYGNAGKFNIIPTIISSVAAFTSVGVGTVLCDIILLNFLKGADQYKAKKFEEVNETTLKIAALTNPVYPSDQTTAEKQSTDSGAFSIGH
As to the kind of experiment: In vitro electrophysiology assay for P2X3 (automated whole-cell patch clamp, α,β-MeATP agonist). The format is cell-based. The note with it: Table 2; 800 nM α,β-MeATP, peak current; read-out: h P2X3 (pIC50 range of activity) (converted). On the procedure: In Vitro Electrophysiology Assay for P2X3
Cells expressing P2X3 receptors were grown according to standard practice and maintained at 37° C. in a 5% humidified CO2 atmosphere. The cells were seeded into T175 flask 2 days prior to the day of the assay and dissociated from the flasks using TrypLE when grown to confluence of 80-90%. The dissociated cells were resuspended in serum free media at a cell density of 3×10^6 cells/ml and loaded onto the Sophion Qube automated patch-clamp system. The extracellular assay buffer contained 145 mM NaCl, 4 mM KCl, 2 mM CaCl2, 1 mM MgCl2, 10 mM HEPES, and 10 mM glucose at pH 7.4. The intracellular assay solution contained 140 mM CsF, 10 mM NaCl, 10 mM EGTA, 10 mM HEPES at pH 7.2. Agonist stock solutions were prepared in H2O and diluted in bath solution prior to use. All antagonists were prepared as 10 mM stock solutions in DMSO and diluted in bath solution prior to use. All experiments were performed under the whole-cell patch clamp configuration at room temperature with 384 individual cells being voltage clamped at −60 mV simultaneously on the Sophion Qube instrument. Two baseline responses were established with the application of α,β-MeATP (800 nM), with the subsequent agonist applications being washed out using extracellular assay buffer containing 0.5 U/ml apyrase. Following the second agonist application, antagonist was incubated in the absence of α,β-MeATP for 10 minutes. After antagonist preincubation, 800 nM α,β-MeATP and antagonist were co-administered to determine the inhibitory effect of the antagonist. One concentration of an antagonist was assessed against a single cell, with different concentrations of the antagonist applied to other cells on the 384 recording substrate. The control P2X3 current amplitude was taken from the peak current amplitude from the second agonist response prior to preincubation with antagonist. The peak P2X3 current amplitude in the presence of antagonist was used to calculate the inhibitory effect at each concentration of the antagonist according to the following equation:
Percentage inhibition of P2X3=(P2X3 control peak amplitude−P2X3 antagonist peak amplitude)/P2X3 control peak amplitude)*100
Concentration-response curves were constructed from ten different concentrations with each concentration of antagonist tested on at least two individual cells. The concentration of the antagonist to inhibit P2X3 current by 50% (IC50) was determined by fitting the data with the following equation:
Y=a+[(b−a)/(1+10^((log c−x)d)]
Where ‘a’ is minimum response, ‘b’ is maximum response, ‘c’ is IC50 and ‘d’ is Hill slope.
(In patch-clamp work, channel activity is measured electrically.)

The structures appear in SMILES notation.

With `Cc1nnc(C(C)Nc2ncnc3c(S(=O)(=O)N4CCOCC4)cc(-c4ccc(F)cc4)cc23)s1` (racemic) [Example 12, (Rac)-6-(4-fluorophenyl)-N-(1-(5-methyl-1,3,4-thiadiazol-2-yl)ethyl)-8-(morpholinosulfonyl)quinazolin-4-amine], the IC50 is less than 316 nM.

For `Cc1nnc(C(C)Nc2ncnc3c(OCC(F)F)cc(-c4ccc(F)cn4)cc23)s1` (single isomer, unassigned; enantiomer 2) [Example 7, Single enantiomer 2 of 8-(2,2-difluoroethoxy)-6-(5-fluoro-2-pyridyl)-N-[1-(5-methyl-1,3,4-thiadiazol-2-yl)ethyl]quinazolin-4-amine], the IC50 was 3160 to 31600 nM.

For the compound `Cc1ccc(CNc2ncnc3c(OCC(F)F)cc(-c4ccc(F)cn4)cc23)nn1` [Example 4, 8-(2,2-difluoroethoxy)-6-(5-fluoropyridin-2-yl)-N-((6-methylpyridazin-3-yl)methyl)quinazolin-4-amine], the IC50 was 316 to 3160 nM.

Regarding `Cc1ccc([C@@H](C)Nc2ncnc3c(OCC(F)F)cc(-c4ccc(F)cn4)cc23)nn1` [Example 5, (R)-8-(2,2-difluoroethoxy)-6-(5-fluoropyridin-2-yl)-N-(1-(6-methylpyridazin-3-yl)ethyl)quinazolin-4-amine], the IC50 is 316 to 3160 nM.

For `Cc1ccc(-c2cc(OCC(F)F)c3ncnc(NCc4ccc(C)nn4)c3c2)nc1` [Example 8, 8-(2,2-Difluoroethoxy)-N-((6-methylpyridazin-3-yl)methyl)-6-(5-methylpyridin-2-yl) quinazolin-4-amine], the IC50 was less than 316 nM.

`Cc1ccc([C@@H](C)Nc2ncnc3c(S(=O)(=O)N4CCOCC4)cc(-c4ccc(F)cc4)cc23)nn1` [Example 10, (R)-6-(4-fluorophenyl)-N-(1-(6-methylpyridazin-3-yl)ethyl)-8-(morpholinosulfonyl)quinazolin-4-amine]: the IC50 is 316 to 3160 nM.

Take `C[C@@H](Nc1ncnc2c(S(=O)(=O)N3CCOCC3)cc(-c3ccc(F)cc3)cc12)c1cnc(C(F)(F)F)nc1` [Example 11]: the IC50 is less than 316 nM.

With `Cc1ccc([C@@H](C)Nc2ncnc3c(S(=O)(=O)N(C)C)cc(-c4ccc(F)cc4)cc23)nn1` [Example 13, (R)-6-(4-fluorophenyl)-N,N-dimethyl-4-((1-(6-methylpyridazin-3-yl)ethyl)amino)quinazoline-8-sulfonamide], the IC50 is less than 316 nM.

Take `Cc1nnc(C(C)Nc2ncnc3c(S(=O)(=O)N(C)C)cc(-c4ccc(F)cc4)cc23)s1` (centres unmarked) [Example 14, 6-(4-fluorophenyl)-N,N-dimethyl-4-((1-(5-methyl-1,3,4-thiadiazol-2-yl)ethyl)amino)quinazoline-8-sulfonamide]: the IC50 is less than 316 nM.

Take `Cc1nnc(C(C)Nc2ncnc3c(S(=O)(=O)N4CCC(F)(F)C4)cc(-c4ccc(F)cc4)cc23)s1` (centres unmarked) [Example 18, 8-((3,3-difluoropyrrolidin-1-yl)sulfonyl)-6-(4-fluorophenyl)-N-(1-(5-methyl-1,3,4-thiadiazol-2-yl)ethyl)quinazolin-4-amine]: the IC50 is 316 to 3160 nM.

With `Cc1ccc([C@@H](C)Nc2ncnc3c(S(=O)(=O)N4CCC(O)CC4)cc(-c4ccc(F)cc4)cc23)nn1` [Example 19, (R)-1-((6-(4-fluorophenyl)-4-((1-(6-methylpyridazin-3-yl)ethyl)amino)quinazolin-8-yl)sulfonyl)piperidin-4-ol], the IC50 is 316 to 3160 nM.

Regarding `Cc1nc([C@@H](C)Nc2ncnc3c(S(=O)(=O)N4CCC(O)CC4)cc(-c4ccc(F)cc4)cc23)no1` [Example 20, (R)-1-((6-(4-fluorophenyl)-4-((1-(5-methyl-1,2,4-oxadiazol-3-yl)ethyl)amino)quinazolin-8-yl)sulfonyl)piperidin-4-ol], the IC50 is less than 316 nM.

In the case of `CNS(=O)(=O)c1cc(-c2ccc(F)cc2)cc2c(NC(C)c3nnc(C)s3)ncnc12` (centres unmarked) [Example 23], the IC50 is 316 to 3160 nM.

With `Cc1ccc([C@@H](C)Nc2ncnc3c(S(=O)(=O)N4CCNCC4)cc(-c4ccc(F)cc4)cc23)nn1` [Example 24, (R)-6-(4-fluorophenyl)-N-(1-(6-methylpyridazin-3-yl)ethyl)-8-(piperazin-1-ylsulfonyl)quinazolin-4-amine], the IC50 was 316 to 3160 nM.

Take `Cc1nc([C@@H](C)Nc2ncnc3c(S(=O)(=O)N4CCNCC4)cc(-c4ccc(F)cc4)cc23)no1` [Example 25, (R)-6-(4-fluorophenyl)-N-(1-(5-methyl-1,2,4-oxadiazol-3-yl)ethyl)-8-(piperazin-1-ylsulfonyl)quinazolin-4-amine]: the IC50 is 316 to 3160 nM.

As to `CSc1cc(-c2ccc(F)cc2)cc2c(N[C@H](C)c3ccc(C)nn3)ncnc12` [Example 26, (R)-6-(4-fluorophenyl)-N-(1-(6-methylpyridazin-3-yl)ethyl)-8-(methylthio)quinazolin-4-amine], the IC50 was 316 to 3160 nM.

For `Cc1ccc([C@@H](C)Nc2ncnc3c(SC4COC4)cc(-c4ccc(F)cc4)cc23)nn1` [Example 28, (R)-6-(4-fluorophenyl)-N-(1-(6-methylpyridazin-3-yl)ethyl)-8-(oxetan-3-ylthio)quinazolin-4-amine], the IC50 was 3160 to 31600 nM.

As for `Cc1ccc([C@@H](C)Nc2ncnc3c([S+]([O-])C4COC4)cc(-c4ccc(F)cc4)cc23)nn1` (stereo partly drawn) [Example 29, 6-(4-fluorophenyl)-N-((R)-1-(6-methylpyridazin-3-yl)ethyl)-8-(oxetan-3-ylsulfinyl)quinazolin-4-amine], the IC50 is 3160 to 31600 nM.

For the compound `CC(=O)N1CC[C@@H](Oc2cc(-c3ccc(F)cc3)cc3c(N[C@H](C)c4cnc(C(F)(F)F)nc4)ncnc23)C1` [Example 30], the IC50 is 316 to 3160 nM.

With `CC(=O)N1CC[C@H](Oc2cc(-c3ccc(F)cc3)cc3c(N[C@H](C)c4cnc(C(F)(F)F)nc4)ncnc23)C1` [Example 31], the IC50 was 316 to 3160 nM.

As for `CC(=O)N[C@H]1CC[C@@H](Oc2cc(-c3ccc(F)cc3)cc3c(N[C@H](C)c4cnc(C(F)(F)F)nc4)ncnc23)CC1` [Example 32, N-((1S,4s)-4-((6-(4-fluorophenyl)-4-(((R)-1-(2-(trifluoromethyl)pyrimidin-5-yl)ethyl)amino)quinazolin-8-yl)oxy)cyclohexyl)acetamide], the IC50 is 316 to 3160 nM.

`C[C@@H](Nc1ncnc2c(OC3CCN(CC(F)(F)F)C3)cc(-c3ccc(F)cc3)cc12)c1cnc(C(F)(F)F)nc1` (stereo partly drawn) [Example 33, 6-(4-fluorophenyl)-8-((1-(2,2,2-trifluoroethyl)pyrrolidin-3-yl)oxy)-N-((R)-1-(2-(trifluoromethyl)pyrimidin-5-yl)ethyl)quinazolin-4-amine]: the IC50 was 316 to 3160 nM.

Regarding `CC(=O)N1CCC(Oc2cc(-c3ccc(F)cc3)cc3c(N[C@H](C)c4cnc(C(F)(F)F)nc4)ncnc23)CC1` [Example 35, (R)-1-(4-((6-(4-fluorophenyl)-4-((1-(2-(trifluoromethyl)pyrimidin-5-yl)ethyl)amino)quinazolin-8-yl)oxy)piperidin-1-yl)ethan-1-one], the IC50 is 316 to 3160 nM.

As for `C[C@@H](Nc1ncnc2c(OC3CCN(CC(F)(F)F)CC3)cc(-c3ccc(F)cc3)cc12)c1cnc(C(F)(F)F)nc1` [Example 36], the IC50 was 316 to 3160 nM.

`C[C@@H](Nc1ncnc2c(OCC3(O)COC3)cc(-c3ccc(F)cc3)cc12)c1cnc(C(F)(F)F)nc1` [Example 37, (R)-3-(((6-(4-fluorophenyl)-4-((1-(2-(trifluoromethyl)pyrimidin-5-yl)ethyl)amino)quinazolin-8-yl)oxy)methyl)oxetan-3-ol]: the IC50 is less than 316 nM.

For the compound `C[C@@H](Nc1ncnc2c(OCc3cc(O)no3)cc(-c3ccc(F)cc3)cc12)c1cnc(C(F)(F)F)nc1` [Example 38, (R)-5-(((6-(4-fluorophenyl)-4-((1-(2-(trifluoromethyl)pyrimidin-5-yl)ethyl)amino)quinazolin-8-yl)oxy)methyl)isoxazol-3-ol], the IC50 is less than 316 nM.
